Source: ChEMBL document CHEMBL1151930, “Physicochemical determinants of human renal clearance” (J Med Chem, 2009)

How the values were obtained:
[1] = (§1) Total body clearance in human; settings: in vivo
Homo sapiens [2] = species: Homo sapiens; settings: in vivo
clinical = settings: human, in vivo
Homo sapiens [3] = species: Homo sapiens; experiment: as §1; settings: in vivo

Structure (SMILES) | clearance [1] | CL_renal (Homo sapiens [2]) | CL renal (clinical) | CL (Homo sapiens [3])
CN1C(C(=O)Nc2ccccn2)=C(O)c2sccc2S1(=O)=O [TENOXICAM] | 0.03 mL/min/kg | 0 mL/min/kg |  | 
Cc1ncc2n1-c1ccc(Cl)cc1C(c1ccccc1F)=NC2 [MIDAZOLAM] |  | 0 mL/min/kg |  | 
CCCCC/C=C\CCC(=O)N[C@H]1[C@H](Oc2c3cc4cc2Oc2ccc(cc2Cl)[C@@H](O[C@@H]2O[C@H](CO)[C@@H](O)[C@H](O)[C@H]2NC(C)=O)[C@@H]2NC(=O)[C@H](NC(=O)[C@@H]4NC(=O)[C@H]4NC(=O)[C@@H](Cc5ccc(c(Cl)c5)O3)NC(=O)[C@H](N)c3ccc(O)c(c3)Oc3cc(O)cc4c3)c3ccc(O)c(c3)-c3c(O[C@H]4O[C@H](CO)[C@@H](O)[C@H](O)[C@@H]4O)cc(O)cc3[C@@H](C(=O)O)NC2=O)O[C@H](CO)[C@@H](O)[C@@H]1O [TEICOPLANIN A2-1] | 0.17 mL/min/kg |  | 0.17 mL/min/kg | 
O=[N+]([O-])O[C@@H]1CO[C@H]2[C@@H]1OC[C@@H]2O [ISOSORBIDE MONONITRATE] | 2 mL/min/kg |  | 0.1 mL/min/kg | 
Cc1onc(-c2c(Cl)cccc2Cl)c1C(=O)N[C@@H]1C(=O)N2[C@@H]1SC(C)(C)[C@@H]2C(=O)O [DICLOXACILLIN] | 2 mL/min/kg |  | 1.2 mL/min/kg | 
CC[C@@]1(O)C(=O)OCc2c1cc1n(c2=O)Cc2c-1nc1ccccc1c2N | 6.5 mL/min/kg |  | 0.56 mL/min/kg | 
CC(C)N(CCC(C(N)=O)(c1ccccc1)c1ccccn1)C(C)C (stereo not drawn) [DISOPYRAMIDE] | 0.9 mL/min/kg |  | 0.5 mL/min/kg | 
CCN1CCN(C(=O)N[C@@H](C(=O)N[C@@H]2C(=O)N3[C@@H]2SC(C)(C)[C@@H]3C(=O)O)c2ccccc2)C(=O)C1=O [PIPERACILLIN] | 4 mL/min/kg |  | 3.2 mL/min/kg | 
N[C@@H](Cc1ccc(N(CCCl)CCCl)cc1)C(=O)O | 7 mL/min/kg |  | 0.91 mL/min/kg | 
CC[C@@H](CO)NCCN[C@@H](CC)CO [ETHAMBUTOL] | 10 mL/min/kg |  | 7.3 mL/min/kg | 
CC1(C)S[C@@H]2[C@H](NC(=O)[C@H](C(=O)O)c3ccsc3)C(=O)N2[C@H]1C(=O)O [TICARCILLIN] | 2.2 mL/min/kg |  | 1.9 mL/min/kg | 
CN[C@@H]1[C@@H](O)[C@@H](O[C@@H]2[C@@H](O)[C@H](O[C@H]3OC(CN)=CC[C@H]3N)[C@@H](N)C[C@H]2N)OC[C@]1(C)O [SISOMICIN] | 1 mL/min/kg |  | 0.76 mL/min/kg | 
C#CCN(C)[C@H](C)Cc1ccccc1 [SELEGILINE] | 20 mL/min/kg |  | 0.2 mL/min/kg | 
O=C(NCCNCC(O)COc1ccc(O)cc1)N1CCOCC1 (stereo not drawn) [XAMOTEROL] | 3 mL/min/kg |  | 1.86 mL/min/kg | 
CNCCC=C1c2ccccc2CCc2ccccc21 [NORTRIPTYLINE] | 10 mL/min/kg |  | 0.2 mL/min/kg | 
Nc1nc(=O)[nH]cc1F [FLUCYTOSINE] | 2 mL/min/kg |  | 1.98 mL/min/kg | 
CC(=O)Nc1ccc(OCC(O)CNC(C)C)cc1 (stereo not drawn) [PRACTOLOL] | 2 mL/min/kg |  | 1.7 mL/min/kg | 
CCc1cccc2cc(C(O)CNC(C)(C)C)oc12 (stereo not drawn) [BUFURALOL] |  | 0 mL/min/kg |  | 
CC(C)NCC(O)c1ccc(NS(C)(=O)=O)cc1 (stereo not drawn) [SOTALOL] | 2 mL/min/kg |  | 1.7 mL/min/kg | 
CCN1CCCC1CNC(=O)c1cc(S(N)(=O)=O)ccc1OC (stereo not drawn) [SULPIRIDE] | 1.83 mL/min/kg |  | 1.7 mL/min/kg | 
COCc1c(C(C)C)nc(C(C)C)c(/C=C/[C@@H](O)C[C@@H](O)CC(=O)O)c1-c1ccc(F)cc1 [CERIVASTATIN] |  | 0 mL/min/kg |  | 
CC1=NS(=O)(=O)c2cc(Cl)ccc2N1 [DIAZOXIDE] | 0.06 mL/min/kg |  | 0.06 mL/min/kg | 
CCCCS(=O)(=O)N[C@@H](Cc1ccc(OCCCCC2CCNCC2)cc1)C(=O)O [TIROFIBAN] |  |  | 1.59 mL/min/kg | 4.3 mL/min/kg
CC1COc2c(N3CCN(C)CC3)c(F)cc3c(=O)c(C(=O)O)cn1c23 (stereo not drawn) [OFLOXACIN] | 3.5 mL/min/kg |  | 2.7 mL/min/kg | 

Structure (SMILES) | clearance [1] | CL_renal (Homo sapiens [2]) | CL renal (clinical) | CL (Homo sapiens [3])
C=CC[C@@H]1/C=C(\C)C[C@H](C)C[C@H](OC)[C@H]2O[C@@](O)(C(=O)C(=O)N3CCCC[C@H]3C(=O)O[C@H](/C(C)=C/[C@@H]3CC[C@@H](O)[C@H](OC)C3)[C@H](C)[C@@H](O)CC1=O)[C@H](C)C[C@@H]2OC [TACROLIMUS ANHYDROUS] | 0.7 mL/min/kg |  | 0.01 mL/min/kg | 
CCC1=C[C@@H]2CN(C1)Cc1c([nH]c3ccccc13)[C@@](C(=O)OC)(c1cc3c(cc1OC)N(C)[C@H]1[C@@](O)(C(=O)OC)[C@H](OC(C)=O)[C@]4(CC)C=CCN5CC[C@]31[C@@H]54)C2 [VINORELBINE] | 20 mL/min/kg |  | 2.2 mL/min/kg | 
CC1(C)S[C@@H]2[C@H](NC(=O)[C@H](NC(=O)N3CCN(S(C)(=O)=O)C3=O)c3ccccc3)C(=O)N2[C@H]1C(=O)O [MEZLOCILLIN] | 5.23 mL/min/kg |  | 2.4 mL/min/kg | 
O=C(NCCN1CCOCC1)c1ccc(Cl)cc1 [MOCLOBEMIDE] | 10 mL/min/kg |  | 0.05 mL/min/kg | 
COc1cccc2c1C(=O)c1c(O)c3c(c(O)c1C2=O)C[C@@](O)(C(=O)CO)C[C@@H]3O[C@H]1C[C@H](N)[C@@H](O)[C@H](C)O1 [EPIRUBICIN] | 20 mL/min/kg |  | 2.44 mL/min/kg | 
CCN1CCCC1CNC(=O)c1cc(S(=O)(=O)CC)c(N)cc1OC (stereo not drawn) [AMISULPRIDE] | 7.8 mL/min/kg |  | 4.4 mL/min/kg | 
N=C(N)NC(=O)Cc1c(Cl)cccc1Cl [GUANFACINE] | 5.9 mL/min/kg |  | 3 mL/min/kg | 
N[C@@H](CC(=O)N1CCn2c(nnc2C(F)(F)F)C1)Cc1cc(F)c(F)cc1F [SITAGLIPTIN] | 6 mL/min/kg |  | 4.74 mL/min/kg | 
CC[C@H]1OC(=O)[C@H](C)[C@@H](O[C@H]2C[C@@](C)(OC)[C@@H](O)[C@H](C)O2)[C@H](C)[C@@H](O[C@@H]2O[C@H](C)C[C@H](N(C)C)[C@H]2O)[C@](C)(O)C[C@@H](C)CN(C)[C@H](C)[C@@H](O)[C@]1(C)O [AZITHROMYCIN] | 10 mL/min/kg |  | 0.45 mL/min/kg | 
C=CC1=C(C(=O)O)N2C(=O)[C@@H](NC(=O)/C(=N\OCC(=O)O)c3csc(N)n3)[C@H]2SC1 [CEFIXIME] | 1 mL/min/kg |  | 0.42 mL/min/kg | 
CO[C@H]1/C=C/O[C@@]2(C)Oc3c(C)c(O)c4c(O)c(c(/C=N/N5CCN(C)CC5)c(O)c4c3C2=O)NC(=O)/C(C)=C\C=C\[C@H](C)[C@H](O)[C@@H](C)[C@@H](O)[C@@H](C)[C@H](OC(C)=O)[C@@H]1C [RIFAMPIN] | 1.5 mL/min/kg |  | 0.2 mL/min/kg | 
Nc1nc2c(c(=O)[nH]1)N(C=O)C(CNc1ccc(C(=O)N[C@@H](CCC(=O)O)C(=O)O)cc1)CN2 (stereo partly drawn) [LEUCOVORIN] | 5.3 mL/min/kg |  | 0.8 mL/min/kg | 
CCCC1O[C@@H]2C[C@H]3[C@@H]4CCC5=CC(=O)C=C[C@]5(C)[C@H]4[C@@H](O)C[C@]3(C)[C@]2(C(=O)CO)O1 (stereo partly drawn) [BUDESONIDE] | 20 mL/min/kg |  | 1 mL/min/kg | 
CN1CCN2c3ncccc3Cc3ccccc3C2C1 (stereo not drawn) [MIRTAZAPINE] | 8 mL/min/kg |  | 0.32 mL/min/kg | 
CN1CCCC(n2nc(Cc3ccc(Cl)cc3)c3ccccc3c2=O)CC1 (stereo not drawn) [AZELASTINE] | 9 mL/min/kg |  | 0.18 mL/min/kg | 
CCCn1c(=O)[nH]c(=O)c2[nH]cnc21 [ENPROFYLLINE] | 4 mL/min/kg |  | 3.56 mL/min/kg | 
CN(C)CCc1c[nH]c2ccc(Cn3cncn3)cc12 [RIZATRIPTAN] | 19 mL/min/kg |  | 5.32 mL/min/kg | 
Clc1cccc(Cl)c1N=C1NCCN1 [CLONIDINE] | 4 mL/min/kg |  | 2.48 mL/min/kg | 
O=C1Nc2ccc(Cl)cc2C(c2ccccc2Cl)=NC1O (stereo not drawn) [LORAZEPAM] | 1 mL/min/kg |  | 0.01 mL/min/kg | 
CCN(CC)C(=O)/C(C#N)=C/c1cc(O)c(O)c([N+](=O)[O-])c1 [ENTACAPONE] | 11.7 mL/min/kg |  | 6.4 mL/min/kg | 
COc1ccc([C@]2(C#N)CC[C@@H](C(=O)O)CC2)cc1OC1CCCC1 [CILOMILAST] | 0.5 mL/min/kg |  | 0.01 mL/min/kg | 
CCCCCCCN(CC)CCCC(O)c1ccc(NS(C)(=O)=O)cc1 (stereo not drawn) [IBUTILIDE] | 25 mL/min/kg |  | 2.5 mL/min/kg | 
CCS(=O)(=O)CCn1c([N+](=O)[O-])cnc1C [TINIDAZOLE] | 0.6 mL/min/kg |  | 0.11 mL/min/kg | 
CCN(CC)CCNC(=O)c1ccc(NC(C)=O)cc1 [ACECAINIDE] | 4 mL/min/kg |  | 3.2 mL/min/kg | 
